Reference: patent publication US9938316B2, “Selective inhibitors of α2 isoform of Na,K-ATPase and use thereof for reduction of intra-ocular pressure and as cardiotonic agents” (priority 2013, dated 2018)

Columns and labels:
[1] = system: purified α2β1FXYD1 complexes of Na,K-ATPase; test: Dissociation of cardiac glycosides from the α2β1 isoform complex; details: α2β1 isoform complex, 37° C.
Experimental: Since the principal isoform in NPE cells is α2 and dissociation from the pump is expected to affect the duration of the effects on IOP, the dissociation rates of different cardiac glycosides from the purified α2β1 isoform were compared.
Purified α2β1FXYD1 complexes (0.3-0.5 mg/ml) were incubated for 30 minutes at 37° C. in a medium containing ATP, 1 mM; NaCl 100 mM; MgCl2, 4 mM Histidine.HCl 25 mM pH 7.4 without (Control) or with 1 μM of different cardiac glycosides. The enzyme solutions were then diluted 100-fold into a medium containing 100 mM NaCl, 5 mM KCl, 1 mM EDTA (Tris), 0.005 mg/ml C12E8, 0.01 mg/ml SOPS, and 0.001 mg/ml cholesterol and incubated at 37° C. for different lengths of time. Aliquots were removed at different times and Na,K-ATPase activity was measured in triplicate over 0.5 minutes (digoxigenin) or 2 minutes (other cardiac glycosides) in the standard activity medium containing 200 μM ATP. The activity of test samples was divided by the activity of the control samples and the time-course for reversal of inhibition was analyzed by fitting the data to the function vt=v∞e^−kt+c. Normalized curves for comparison of different experiments (e.g. as in FIG. 9) were obtained by subtracting the constant value c from each value of the activity and re-fitting the ratio vt/v∞=1−e^−kt.

[2] = system: intra-ocular pressure (IOP) of rabbits; test: IB-MECA-induced ocular hypertension in rabbits; type: in vivo, New Zealand white rabbits; details: 1 mM applied after IB-MECA
Experimental: IB-MECA induces acute ocular hypertension by a different and well-defined mechanism. Namely, IB-MECA is a selective agonist of the A3-adenosine receptor, and rises aqueous humour inflow and IOP by activating Cl channels of the NPE cells (18, 19). […] FIG. 8A depicts the effects of DMe (0.1-1 mM) applied prior to the IB-MECA, and a similar result was obtained for DGlyN (not shown). FIG. 8B depicts effects of digoxigenin, DGlyN and DMe (1 mM) applied after the IB-MECA.
New Zealand white rabbits (3-3.5 kg) about 1 year old, of either sex, were housed individually in separate cages in animal room conditions on a reversed, 12-hour dark/light cycle. For the experiments the animals were transferred to rabbit restrainers in a quiet and calm atmosphere (FIG. 1). […] Animal care and treatment were subject to the approval of the institutional committee for animal experiments, Weizmann Institute IACUC permission (no 04270911-2).
IOP (mm Hg) of rabbits was measured using a calibrated Pneumatonometer (Model 30, Reichert technologies, FIG. 1). A local anesthetic Oxybuprocaine HCl (0.4%, 25 μl) was applied to each cornea about a minute before IOP measurements. Two baseline IOP readings were taken before topical administration of the CG (or PBS as control) and after half an hour (Zero time). […] At zero time one drop of 4AP (40 mg/ml, 30 μl) or IB-MECA (1 μM, 30 μl) was administered to both eyes of each rabbit IOP measurements were made at different times as indicated in each experiment. In the experiments for which the IOP was elevated for several hours, 4AP was added every […] or IB-MECA every 2 hours. […] In all cases the figures depict the average effect on IOP (i.e for four or six eyes) compared to control ±SEM. […] Significance of differences from the control was calculated by the unpaired Students t-test (p values), p values <0.05 were considered significant. Corneal thickness (μm) was measured using an ultrasonic pachymeter (Sonogage pachometer, Cleveland, USA), before and during the experiment with CG and 4AP treatments. The values represent averages of three independent measurements for each eye.

[3] = target: Na,K-ATPase α1β1 isoform complex (Homo sapiens, UniProt P05023); test: biochemical; details: Ki ± S.E. α1, Table 2; α1β1
Experimental: Methods for transformation, culture of P. pastoris clones, protein expression of Na,K-ATPase human isoforms (α1β1, α2β1, α3β1), membrane preparation, solubilization of membranes in DDM, and purification on BD-Talon beads have been described in detail (6-9, 11, 25). In initial experiments the three purified isoform complexes (0.3-0.5 mg/ml) were eluted from the BD-Talon beads in a solution containing Imidazole 170 mM, NaCl 100 mM; Tricine.HCl 20 mM pH 7.4; C12E8, 0.1 mg/ml; SOPS 0.07 mg/ml cholesterol 0.01 mg/ml, glycerol 25%. In later experiments the isoforms complexes were reconstituted with purified FXYD1 on the BD-Talon beads together as described in detail in (10, 11) prior to elution of α1β1FXYD1, α2β1FXYD1 and α3β1FXYD1 complexes. The proteins were stored at −80° C. Protein concentration was determined with BCA (B9643 Sigma).
Inhibition of Na,K-ATPase activity of the detergent-soluble α1β1, α2β1, and α3β1 complexes by CG's was determined as described (6) using either the αβ or αβFXYD1 complexes. […] The K0.5K was estimated by varying K concentration in a medium containing a fixed total K+choline chloride of 60 mM, and constant NaCl of 140 mM. Curves were fitted to the Hill function v=Vmax*[S]^n/([S]^n+K^n), where S is the K concentration, n is the Hill coefficient and K^n is K0.5K. For comparison of different curves the ratio v/Vmax for each curve was calculated and replotted. In experiments to assess inhibition of Na,K-ATPase activity by cardiac glycosides of the present invention, the percent inhibition VCG/V0 was calculated and Ki values were obtained by fitting the data to the function VCG/V0=Ki/([CG]+Ki)+ c. Inhibition was estimated in 3-8 separate experiments and average Ki values ±SEM were calculated. Significance of differences between Kiα1 and Kiα2 was calculated by the unpaired Student's t-test (p values). […] P values <0.05 were considered significant.

[4] = system: intra-ocular pressure (IOP) of rabbits; test: 4-aminopyridine (4AP)-induced ocular hypertension in rabbits; type: in vivo, New Zealand white rabbits; details: for Time IOP is maintained at the low level: 1 mM; for Time IOP is maintained at the low level / Time IOP is held at the low level: single drop; for Order of relative effects on IOP: all at 0.1 mM, 1.5 hours after 4AP, average of three experiments

Compound | k ± SEM (rate of dissociation) [1] | Duration of the effect compared with digoxigenin [2] | Effect on IB-MECA-induced ocular hypertension [2] | Ki [3] [nM] | Time IOP is maintained at the low level ([4]; 4AP every two hours) | Order of relative effects on IOP [4] | Wash-out time/rate compared with other cardiac glycosides ([4]; equal concentrations, 4AP every two hours) | Time IOP is held at the low level ([4]; 0.2 mM, 4AP every two hours) [h] | Time IOP is held at the low level ([4]; 0.5 mM, 4AP every two hours) [h] | Time IOP is held at the low level ([4]; 2 mM, 4AP every two hours) [h]
CC1CN(CC(N)=O)CCC(OC2C(O)CC(OC3C(O)CC(OC4CCC5(C)C(CCC6C5CC(O)C5(C)C(C7=CC(=O)OC7)CCC65O)C4)OC3C)OC2C)O1 (stereo not shown) [DGlyN] | 0.009 ± 0.001, 3 min^−1 | significantly greater | almost the same as seen with 4AP | 152 ± 5.5 | 3.5 h | DGlyN≈DMe≈digoxigenin>digoxin>ouabain | slightly faster than for DMe |  |  | 
CC1CN(C)CCC(OC2C(O)CC(OC3C(O)CC(OC4CCC5(C)C(CCC6C5CC(O)C5(C)C(C7=CC(=O)OC7)CCC65O)C4)OC3C)OC2C)O1 (stereo not shown) [DMe] | 0.0067 ± 0.004, 3 min^−1 | significantly greater | almost the same as seen with 4AP | 101 ± 4.4 | about 5.5 hours | DGlyN≈DMe≈digoxigenin>digoxin>ouabain |  | 2.5 | 4.5 | 5.8
